Laboratory results as given in patent US7897732B2, “Antibodies to heparin-binding growth factor (HBGF) polypeptides” (Childrens Hospital Research Foundation, priority 1997, dated 2011).
Values belong to the substance of their own block, whether it stands above or below them.

Tests used:
[1] = [3H]heparin binding of synthetic CTGF polypeptides on nitrocellulose dot-blot; details: 37.5 nmol polypeptide on nitrocellulose, 10 μCi/ml [3H]heparin, room temperature
Source text: Eighteen synthetic polypeptides spanning the entire 103 C-terminal residues of CTGF were synthesized and received as a cleaved PepSet™ from Chiron Mimotopes (Clayton, Victoria, Australia). All polypeptides were synthesized with acetylated N-termini and amidated C-termini except CTGF-(247-255) and CTGF-(247-260), which were synthesized with free N-terminal amines, and CTGF-(326-349) and CTGF-(339-349), which were synthesized with acid C-termini (Table 3).
All polypeptides contained one or no Cys residues; Cys^292 in CTGF(285-292) and Cys^325 in CTGF-(318-328) were replaced with Ser to prevent intra-chain disulfide bridging to Cys^287 or Cys^323 within the respective polypeptides. Heparin-binding properties were determined using an adaptation of the method of Baird et al. (Baird, A., et al. Proc. Natl. Acad. Sci. U.S.A. 85, 2324-2328(1988)). Briefly, 37.5 nmol of each polypeptide were absorbed in duplicate to nitrocellulose using a dot-blot apparatus. The blot was blocked for 30 min. with 10 mM Tris-HCl, 0.15 M NaCl, 0.1% bovine serum albunin (pH 7.4) and then incubated for 3 hr. at room temperature in this solution containing 10 μCi/ml [^3H]heparin (NEN Life Science Products). The blot was washed four times with 10 mM Tris-HCl, 0.15 M NaCl, and individual dots were mixed with scintillation fluid for counting of [^3H].

Balb/c 3T3 fibroblasts = assay: DNA synthesis ([3H]thymidine incorporation) assay in confluent quiescent Balb/c 3T3 cells; type: cell-based; details: for [3H]Thymidine incorporation (mean ± S.D.): Balb/c 3T3 fibroblasts
Description: To assess the relative mitogenic capability of HBGFs with IGF-1, EGF, bFGF, and PDGF-AB, DNA synthesis assays on 3T3 cells were performed (Table 4). Biologically active fractions containing the 0.3-0.6 M NaCl eluate from the Bio-Rex column were pooled, diluted 3-fold with 20 mM Tris-HCL (pH 7.4) containing 0.1% CHAPS, passed through a 0.45-μm membrane filter, placed in a siliconized polypropylene vessel, and applied with a peristaltic pump to an EconoPac heparin column (0.7×3.6 cm; Bio-Rad) at 2 ml/min. The heparin column was then washed with 50 ml of 20 mM Tris-HCl buffer, 0.2 M NaCl, 0.1% CHAPS and developed at 1 ml/min with a 40 ml gradient of 0.1-2.0 M NaCl in 20 mM Tris-HCl, 0.1% CHAPS (pH 7.4) using a fast protein liquid chromatography (FPLC) system (Pharmacia Biotech Inc.). Fractions (1 ml) were collected into siliconized tubes during NaCl gradient elution and tested for 3T3 cell mitogenic activity. Column fractions were tested for their ability to stimulate DNA synthesis as measured by [^3H]thymidine incorporation into the DNA of confluent quiescent Balb/c 3T3 cells grown in 200 μl of Dulbecco's modified Eagle's medium, 10% bovine calf serum in 96-well culture plates as described (Kim, G. Y., et al., Biol. Reprod. 52, 561-571 (1995)). Dose-response curves to purified growth factors from ULF were established by assaying each dose in triplicate, with data computed as mean±S.D. Statistical significance of the effects of 1-100 μg/ml porcine heparin (Sigma) on growth factor activity was determined by Students' t test.

[2] = test system: Vascular smooth muscle cells; assay: Smooth muscle cell DNA synthesis assay; type: cell-based, pig; details: 3 ng/ml
Description: (§1) Target cell specificity was studied using Balb/c 3T3 cells, bovine capillary endothelial cells (BCECs), and vascular smooth muscle cells. 3T3 cells were utilized as described above. BCECs were obtained from Dr. J. Folkman (Children's Hospital, Boston, Mass.) and were maintained in gelatinized culture flasks in Dulbecco's modified Eagle's medium containing 3 ng/ml bFGF and 10% heat-inactivated bovine calf serum. Smooth muscle cells were isolated from a 2-3-cm length of pig thoracic aorta using established procedures (Weich, H. A., et al., Growth Factors 2, 313-320 (1990)) and maintained in 10% Dulbecco's modified Eagle's medium, 10% fetal bovine serum. BCEC and smooth muscle cell DNA synthesis assays were performed in 48- or 96-well plates essentially as described (Besner, G. E., Higashiyama, S., and Kagsbrun, M. Cell Regul. 1, 811-819 (1990)). BCEC DNA synthesis assays were also performed in the presence of 100 μg/ml porcine heparin.

[3] = test system: bovine capillary endothelial cells (BCECs); assay: BCEC DNA synthesis assay; type: cell-based
Description: as §1

Substance: basic fibroblast growth factor [bFGF]
- [3H]Thymidine incorporation (mean ± S.D.) (Balb/c 3T3 fibroblasts; 10 ng/ml): 73,853 ± 3,122 Cpm/well
- [3H]Thymidine incorporation (mean ± S.D.) [2]: 3,082 ± 374 Cpm/well
- [3H]Thymidine incorporation (mean ± S.D.) ([3]; 3 ng/ml): 2,865 ± 276 Cpm/well
- [3H]Thymidine incorporation (mean ± S.D.) ([3]; 3 ng/ml + 100 μg/ml heparin): 1,840 ± 4 Cpm/well

Substance: heparin [reference compound]
- Effect on basal or calf serum-stimulated DNA synthesis in 3T3 cells (Balb/c 3T3 fibroblasts; 1-100 μg/ml heparin): no effect
- [3H]Thymidine incorporation (mean ± S.D.) ([3]; 100 μg/ml): 240 ± 52 Cpm/well

Substance: platelet-derived growth factor [PDGF-AB, reference compound]
- [3H]Thymidine incorporation (mean ± S.D.) (Balb/c 3T3 fibroblasts; 30 ng/ml): 110,110 ± 7,077 Cpm/well

Substance: MFIKTCA (Ac-MFIKTCA-NH2) [CTGF-(318-324)]
- [3H]Heparin bound (mean ± S.D.) [1]: 475 ± 116 cpm/μg

Substance: TSMKTYRAKF (Ac-TSMKTYRAKF-NH2) [CTGF-(274-283)]
- [3H]Heparin bound (mean ± S.D.) [1]: 388 ± 12 cpm/μg

Substance: aFGF: acidic fibroblast growth factor
- [3H]Thymidine incorporation (mean ± S.D.) ([3]; 3 ng/ml): 603 ± 46 Cpm/well
- [3H]Thymidine incorporation (mean ± S.D.) ([3]; 3 ng/ml + 100 μg/ml heparin): 2,232 ± 236 Cpm/well

Substance: PDGEVMKKNMMFIKT (Ac-PDGEVMKKNMMFIKT-NH2) [CTGF-(308-322)]
- [3H]Heparin bound (mean ± S.D.) [1]: 71 ± 2 cpm/μg

Substance: epidermal growth factor [EGF, reference compound]
- [3H]Thymidine incorporation (mean ± S.D.) (Balb/c 3T3 fibroblasts; 30 ng/ml): 11,550 ± 101 Cpm/well
- [3H]Thymidine incorporation (mean ± S.D.) [2]: 1,343 ± 378 Cpm/well

Substance: EENIKKGKK [CTGF-(247-255)]
- [3H]Heparin bound (mean ± S.D.) [1]: 10 ± 0.3 cpm/μg

Substance: insulin-like growth factor [IGF-1, reference compound]
- [3H]Thymidine incorporation (mean ± S.D.) (Balb/c 3T3 fibroblasts; 30 ng/ml): 4,412 ± 170 Cpm/well

More lines, now with the values ahead:

- [3H]Heparin bound (mean ± S.D.) [1]: 8 ± 0.4 cpm/μg
Substance: GVCTDGRS (Ac-GVCTDGRS-NH2) [Ser^292 CTGF-(285-292)]

- [3H]Heparin bound (mean ± S.D.) [1]: 9 ± 1.1 cpm/μg
Substance: CTPHRTTTLPVEFK (Ac-CTPHRTTTLPVEFK-NH2) [CTGF-(293-306)]

- [3H]Heparin bound (mean ± S.D.) [1]: 70 ± 13 cpm/μg
Substance: IRTPKISKPIKFELSG (Ac-IRTPKISKPIKFELSG-NH2) [CTGF-(257-272)]

- [3H]Heparin bound (mean ± S.D.) [1]: 836 ± 1 cpm/μg
Substance: EENIKKGKKCIRTP [CTGF-(247-260)]

- [3H]Heparin bound (mean ± S.D.) [1]: 7 ± 0.3 cpm/μg
Substance: GVCTDGR (Ac-GVCTDGR-NH2) [CTGF-(285-291)]

- [3H]Heparin bound (mean ± S.D.) [1]: 10 ± 1 cpm/μg
Substance: HYNCPGDNDIFESLYYRKMYGDMA (Ac-HYNCPGDNDIFESLYYRKMYGDMA-OH) [CTGF-(326-349)]

- [3H]Heparin bound (mean ± S.D.) [1]: 1108 ± 119 cpm/μg
Substance: TSMKTYRAKFCGV (Ac-TSMKTYRAKFCGV-NH2) [CTGF-(274-286)]

- [3H]Heparin bound (mean ± S.D.) [1]: 601 ± 40 cpm/μg
Substance: MFIKTCASHYN (Ac-MFIKTCASHYN-NH2) [Ser^325 CTGF-(318-328)]

- [3H]Heparin bound (mean ± S.D.) [1]: 237 ± 22 cpm/μg
Substance: FKCPDGEVMKKNMMFIKT (Ac-FKCPDGEVMKKNMMFIKT-NH2) [CTGF-(305-322)]

- [3H]Heparin bound (mean ± S.D.) [1]: 10 ± 0.5 cpm/μg
Substance: PGDNDIFESLY (Ac-PGDNDIFESLY-NH2) [CTGF-(330-340)]

- [3H]Heparin bound (mean ± S.D.) [1]: 11 ± 0.4 cpm/μg
Substance: TPHRTTTLPVEFK (Ac-TPHRTTTLPVEFK-NH2) [CTGF-(294-306)]

- [3H]Heparin bound (mean ± S.D.) [1]: 124 ± 3 cpm/μg
Substance: TPKISKPIKFELSGCTS (Ac-TPKISKPIKFELSGCTS-NH2) [CTGF-(259-275)]

- [3H]Heparin bound (mean ± S.D.) [1]: 9 ± 1 cpm/μg
Substance: ACHYN [CTGF-(324-328)]

- [3H]Heparin bound (mean ± S.D.) [1]: 9 ± 0.5 cpm/μg
Substance: LYYRKMYGDMA (Ac-LYYRKMYGDMA-OH) [CTGF-(339-349)]
